Calls of active or inactive are those of the source. The calls are words filed in the database; no cut-off is given here.
Tests used:
[1] = system: PC-3; assay: Growth inhibition of human PC3 cells; format: functional
[2] = system: A549; assay: Growth inhibition of human A549 cells; format: functional
[3] = system: KB; assay: Growth inhibition of human KB cells; format: functional
[4] = Growth inhibition of human Gurav cells; format: functional
[5] = system: A2780; assay: Growth inhibition of human A2780 cells; format: functional
[6] = system: SiHa; assay: Growth inhibition of human SiHa cells; format: functional
[7] = system: ZR-75-1; assay: Growth inhibition of human ZR-75-1 cells; format: functional
[8] = system: MCF7; assay: Cytotoxicity against human MCF7 cells assessed as decrease in cell viability at 2 to 16 uM after 6 to 48 hrs by MTT assay; format: functional, cell-based
[9] = system: MCF7; assay: Cytotoxicity against human MCF7 cells assessed as decrease in cell viability at 4 uM after 24 hrs by MTT assay; format: functional, cell-based
[10] = system: MCF7; assay: Cytotoxicity against human MCF7 cells by ATP-dependent cell viability assay; format: functional, cell-based
[11] = system: MCF7; assay: Cell cycle arrest in human MCF7 cells assessed as accumulation at G0 phase at 4 uM after 24 hrs by propidium iodide staining based flow cytometry (reference value: 2.77%); format: functional
[12] = system: MCF7; assay: Cell cycle arrest in human MCF7 cells assessed as accumulation at G1 phase at 4 uM after 24 hrs by propidium iodide staining based flow cytometry (reference value: 57.98%); format: functional
[13] = system: MCF7; assay: Cell cycle arrest in human MCF7 cells assessed as accumulation at S phase at 4 uM after 24 hrs by propidium iodide staining based flow cytometry (reference value: 14.30%); format: functional
[14] = system: MCF7; assay: Cell cycle arrest in human MCF7 cells assessed as accumulation at G2/M phase at 4 uM after 24 hrs by propidium iodide staining based flow cytometry (reference value: 24.95%); format: functional
[15] = system: MCF7; assay: Cell cycle arrest in human MCF7 cells assessed as accumulation at G0/G1 phase at 4 uM after 24 hrs by propidium iodide staining based flow cytometry (reference value: 60.75%); format: functional
[16] = system: MCF7; assay: Induction of apoptosis in human MCF7 cells assessed as Apoalert DNA fragmentation at 4 uM after 24 hrs by TUNEL assay; format: functional, cell-based
[17] = system: MCF7; assay: Antiproliferative activity against human MCF7 cells assessed as cell proliferation at 4 uM after 24 hrs by BrdU incorporation assay (reference value: 100%); format: functional; details: MCF7, 24 h, read-out: Activity
[18] = system: MCF7; assay: Downregulation of cyclin D1 protein expression in human MCF7 cells at 2 to 4 uM after 24 hrs by Western blot analysis; format: functional, cell-based
[19] = system: MCF7; assay: Upregulation of p53 protein expression in human MCF7 cells at 4 uM after 24 hrs by Western blot analysis; format: functional, cell-based
[20] = system: MCF7; assay: Upregulation of Bax protein expression in human MCF7 cells at 4 uM after 24 hrs by Western blot analysis; format: functional, cell-based
[21] = system: MCF7; assay: Downregulation of c-Jun protein expression in human MCF7 cells at 4 uM after 24 hrs by Western blot analysis; format: functional, cell-based
[22] = system: MCF7; assay: Downregulation of Jun B protein expression in human MCF7 cells at 4 uM after 24 hrs by Western blot analysis; format: functional, cell-based
[23] = system: MCF7; assay: Downregulation of CREB protein expression in human MCF7 cells at 4 uM after 24 hrs by Western blot analysis; format: functional, cell-based
[24] = system: MCF7; assay: Downregulation of CDK4 protein expression in human MCF7 cells at 4 uM after 24 hrs by Western blot analysis; format: functional, cell-based
[25] = system: MCF7; assay: Upregulation of JNK1/2 protein expression in human MCF7 cells at 4 uM after 24 hrs by Western blot analysis; format: functional, cell-based
[26] = system: MCF7; assay: Upregulation of PARP protein expression in human MCF7 cells at 4 uM after 24 hrs by Western blot analysis; format: functional, cell-based
[27] = system: MCF7; assay: Induction of apoptosis in human MCF7 cells assessed as procaspase-7 cleavage at 4 uM after 24 hrs by Western blot analysis; format: functional, cell-based
[28] = system: MCF7; assay: Induction of apoptosis in human MCF7 cells assessed as pRb protein expression at 4 uM after 24 hrs by Western blot analysis; format: functional, cell-based
[29] = system: PC-3; assay: Anticancer activity against human PC3 cells xenografted in NOD-SCID mouse assessed as decrease in tumor weight at 20 mg/kg, iv q4d on days 1, 5 and 9; format: functional, organism-based; design: dose 20 mg/kg
[30] = system: PC-3; assay: Anticancer activity against human PC3 cells xenografted in NOD-SCID mouse assessed as decrease in tumor volume at 20 mg/kg, iv q4d on days 1, 5 and 9; format: functional, organism-based; design: dose 20 mg/kg
[31] = Toxicity in iv dosed NOD-SCID mouse xenografted with human PC3 cells assessed as maximum tolerated dose administered q4d on days 1, 5 and 9; format: organism-based, PC-3; details: in vivo
[32] = system: Mus musculus; assay: Toxicity in NOD-SCID mouse xenografted with human PC3 cells assessed as weight loss at 20 mg/kg, iv q4d on days 1, 5 and 9; format: organism-based, PC-3; design: dose 20 mg/kg, route intravenous; details: in vivo
[33] = system: Mus musculus; assay: Toxicity in NOD-SCID mouse xenografted with human PC3 cells assessed as mortality at 20 mg/kg, iv q4d on days 1, 5 and 9; format: organism-based, PC-3; design: dose 20 mg/kg, route intravenous; details: in vivo
[34] = system: Calf thymus DNA; assay: Binding affinity to calf thymus DNA assessed as change in melting temperature at compound to DNA ratio of 1:5 after 18 hrs by thermal denaturation analysis; format: nucleic-acid assay; details: Bos taurus
[35] = system: HOP-62; assay: Growth inhibition of human HOP62 cells; format: functional
[36] = system: COLO 205; assay: Growth inhibition of human COLO205 cells; format: functional
[37] = system: MCF7; assay: Growth inhibition of human MCF7 cells; format: functional

Question: For COc1ccc(-c2ccc3c(c2)c2cc(-c4ccc(OC)cc4)ccc2n3CCCCN2CCN(CCCCOc3cc4c(cc3OC)C(=O)N3CCC[C@H]3C=N4)CC2)cc1, which GI50 [1] is on record?
Answer: 10 nM

Question: What about the GI50 [2] of the same compound?
Answer: 90 nM

Question: And the GI50 [3]?
Answer: 100 nM

Question: What about the GI50 [4] of the same compound?
Answer: 110 nM

Question: What about the GI50 [5] of the same compound?
Answer: 10 nM

Question: And the GI50 [6]?
Answer: 110 nM

Question: And the GI50 [7]?
Answer: 120 nM

Question: And the inhibition [8]?
Answer: Active

Question: And the inhibition [9]?
Answer: Active

Question: And the inhibition [10]?
Answer: Active

Question: What about the Activity [11] of the same compound?
Answer: 25.31%

Question: And the Activity [12]?
Answer: 63.03%

Question: And the Activity [13]?
Answer: 5.44%

Question: And the Activity [14]?
Answer: 6.2%

Question: What about the Activity [15] of the same compound?
Answer: 88.34%

Question: And the Activity [16]?
Answer: Active

Question: And the growth at 4 µM [17]?
Answer: 28%

Question: And the inhibition [18]?
Answer: Active

Question: And the Activity [19]?
Answer: Active

Question: What about the Activity [20] of the same compound?
Answer: Active

Question: What about the inhibition [21] of the same compound?
Answer: Active

Question: And the inhibition [22]?
Answer: Active

Question: What about the inhibition [23] of the same compound?
Answer: Active

Question: And the inhibition [24]?
Answer: Active

Question: And the Activity [25]?
Answer: Active

Question: What about the Activity [26] of the same compound?
Answer: Active

Question: What about the Activity [27] of the same compound?
Answer: Active

Question: And the Activity [28]?
Answer: Active

Question: What about the inhibition [29] of the same compound?
Answer: Active

Question: What about the inhibition [30] of the same compound?
Answer: Active

Question: And the MTD [31]?
Answer: < 50 mg/kg

Question: And the Activity [32]?
Answer: Non-toxic

Question: And the Activity [33]?
Answer: Non-toxic

Question: And the ΔTm [34]?
Answer: 10.2 °C

Question: And the GI50 [35]?
Answer: 10 nM

Question: And the GI50 [36]?
Answer: 70 nM

Question: And the GI50 [37]?
Answer: 10 nM
